Test results from patent US20240342292A1, “Compounds for the Degradation of EGFR Kinase” (BeiGene Switzerland GmbH, priority 2021, published 2024).

Tests used:
Del19/T790M/C797S EGFR = test: EGFR degradation HTRF assay in H1975-clone #28 (DTC) cells; type: cell-based; settings: H1975 # 28 DTC (Del19/T790M/C797S), 16h treatment; for DC50: HTRF; for Dmax (%): maximum percentage of degradation
In short: (§1)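 DC50 from a four-parameter fit of HTRF signal. H1975 mutant-EGFR clones with endogenous EGFR knocked out; 16 h treatment, 10 uM top, 5-fold × 8.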

L858R/T790M/C797S EGFR = target: T1, L858R/T790M/C797S EGFR (Homo sapiens, UniProt P00533, C797S/L858R/T790M); test: EGFR degradation HTRF assay in H1975-clone #25 (LTC) cells; type: cell-based; settings: 16h treatment; for DC50: H1975 # 25-LTC (L858R/T790M/C797S), HTRF; for Dmax: NCI-H1975, H1975 # 25-LTC (L858R/T790M/C797S), maximum percentage of degradation
T1 construct: expressed in transfected cells; host or cells: H1975 clone #25 (lentiviral over-expression, endogenous EGFR knocked out by sgRNA)
In short: as §1

T1 sequence (P00533 25-1210 T790M/C797S/L858R): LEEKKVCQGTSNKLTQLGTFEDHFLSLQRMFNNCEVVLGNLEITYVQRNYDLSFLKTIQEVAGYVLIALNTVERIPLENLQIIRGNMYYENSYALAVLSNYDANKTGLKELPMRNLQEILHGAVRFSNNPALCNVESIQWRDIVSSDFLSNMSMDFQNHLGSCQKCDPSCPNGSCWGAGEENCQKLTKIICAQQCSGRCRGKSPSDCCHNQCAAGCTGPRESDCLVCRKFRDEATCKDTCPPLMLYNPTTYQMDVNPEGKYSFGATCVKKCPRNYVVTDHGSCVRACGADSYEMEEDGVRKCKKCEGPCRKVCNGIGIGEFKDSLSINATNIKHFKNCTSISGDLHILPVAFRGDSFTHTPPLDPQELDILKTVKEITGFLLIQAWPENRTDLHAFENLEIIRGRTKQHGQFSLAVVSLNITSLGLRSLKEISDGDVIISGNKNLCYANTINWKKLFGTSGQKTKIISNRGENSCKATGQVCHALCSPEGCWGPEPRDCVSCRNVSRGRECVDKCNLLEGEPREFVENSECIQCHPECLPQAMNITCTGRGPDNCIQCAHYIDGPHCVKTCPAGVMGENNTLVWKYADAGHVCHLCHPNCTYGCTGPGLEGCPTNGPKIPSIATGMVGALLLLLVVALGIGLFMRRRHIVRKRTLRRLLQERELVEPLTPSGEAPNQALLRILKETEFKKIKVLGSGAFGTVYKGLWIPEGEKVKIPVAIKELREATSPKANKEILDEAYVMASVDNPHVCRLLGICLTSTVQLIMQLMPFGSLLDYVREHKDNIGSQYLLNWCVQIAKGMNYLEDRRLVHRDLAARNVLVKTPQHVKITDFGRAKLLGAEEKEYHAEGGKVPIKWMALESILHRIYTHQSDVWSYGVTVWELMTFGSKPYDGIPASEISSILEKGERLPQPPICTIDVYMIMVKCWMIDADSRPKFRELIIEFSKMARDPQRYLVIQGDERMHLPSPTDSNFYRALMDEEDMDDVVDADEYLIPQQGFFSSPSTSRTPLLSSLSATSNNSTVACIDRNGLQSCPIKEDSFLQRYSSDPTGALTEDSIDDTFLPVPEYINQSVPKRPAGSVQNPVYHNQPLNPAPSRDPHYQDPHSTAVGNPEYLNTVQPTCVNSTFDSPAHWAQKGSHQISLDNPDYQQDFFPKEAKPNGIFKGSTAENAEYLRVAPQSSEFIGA

SMILES	DC50 (Del19/T790M/C797S EGFR) [pM]	DC50 (L858R/T790M/C797S EGFR) [pM]	Dmax (L858R/T790M/C797S EGFR) [%]	Dmax (%) (Del19/T790M/C797S EGFR)
Cc1cc2cc(n1)-c1cnn(C)c1OCCC[C@@H](C)CN1/C(=N/C2=O)Nc2ccc(N3CC[C@@H](N4CCN(c5cc(F)c([C@H]6CCC(=O)NC6=O)c(F)c5)CC4)CC3=O)cc21 [Example 448, (R)-3-(2,6-difluoro-4-(4-((R)-2-oxo-1-((R,E)-1^1,2^6,7-trimethyl-3-oxo-5^2,5^3-dihydro-1^1H,5^1H-11-oxa-4-aza-5(2,1)-benzo[d]imidazola-2(2,4)-pyridina-1(4,5)-pyrazolacycloundecaphane-5^6-yl)piperidin-4-yl)piperazin-1-yl)phenyl)piperidine-2,6-dione]	584	237	92.3	88.36
Cc1cc2cc(n1)-c1cnn(C)c1OCCC[C@@H](C)CN1/C(=N/C2=O)Nc2ccc(N3CCN(CC4CN(c5cc(F)c([C@H]6CCC(=O)NC6=O)c(F)c5)C4)[C@H](CO)C3)cc21 [Example 451, (R)-3-(2,6-difluoro-4-(3-(((S)-2-(hydroxymethyl)-4-((R,E)-1^1,2^6,7-trimethyl-3-oxo-5^2,5^3-dihydro-1^1H,5^1H-11-oxa-4-aza-5(2,1)-benzo[d]imidazola-2(2,4)-pyridina-1(4,5)-pyrazolacycloundecaphane-5^6-yl)piperazin-1-yl)methyl)azetidin-1-yl)phenyl)piperidine-2,6-dione]	606	881	90.9	81.53
COc1cc2cc(n1)-c1cnn(C)c1OCCC[C@@H](C)CN1/C(=N/C2=O)Nc2ccc(N3CCN(C4CCN(c5cc(F)c([C@H]6CCC(=O)NC6=O)c(F)c5)CC4)CC3)cc21 [Example 453, (R)-3-(2,6-difluoro-4-(4-(4-((R,E)-2^6-methoxy-1^1,7-dimethyl-3-oxo-5^2,5^3-dihydro-1^1H,5^1H-11-oxa-4-aza-5(2,1)-benzo[d]imidazola-2(2,4)-pyridina-1(4,5)-pyrazolacycloundecaphane-5^6-yl)piperazin-1-yl)piperidin-1-yl)phenyl)piperidine-2,6-dione]	1430	3170	85.3	82.83
Cc1cc2cc(n1)-c1cnn(C)c1OCC[C@H]1C[C@@H]1CN1/C(=N/C2=O)Nc2ccc(NC3CN(C4CCN(c5cc(F)c([C@H]6CCC(=O)NC6=O)c(F)c5)CC4)C3)cc21 [Example 455, (R)-3-(4-(4-(3-(((71S,72R,E)-1^1,2^6-dimethyl-3-oxo-5^2,5^3-dihydro-1^1H,5^1H-10-oxa-4-aza-5(2,1)-benzo[d]imidazola-2(2,4)-pyridina-1(4,5)-pyrazola-7(1,2)-cyclopropanacyclodecaphane-5^6-yl)amino)azetidin-1-yl)piperidin-1-yl)-2,6-difluorophenyl)piperidine-2,6-dione]	912	537	90.8	85.22
Cc1cc2cc(n1)-c1cnn(C)c1OCC[C@H]1C[C@@H]1CN1/C(=N/C2=O)Nc2ccc(N3CCN(C[C@H]4C[C@H](Nc5cc(F)c([C@H]6CCC(=O)NC6=O)c(F)c5)C4)CC3)cc21 [Example 457, (R)-3-(4-(((1S,3R)-3-((4-((7^1S,7^2R,E)-1^1,2^6-dimethyl-3-oxo-5^2,5^3-dihydro-1^1H,5^1H-10-oxa-4-aza-5(2,1)-benzo[d]imidazola-2(2,4)-pyridina-1(4,5)-pyrazola-7(1,2)-cyclopropanacyclodecaphane-5^6-yl)piperazin-1-yl)methyl)cyclobutyl)amino)-2,6-difluorophenyl)piperidine-2,6-dione]	709	632	92.8	91.81
Cc1cc2cc(n1)-c1cnn(C)c1OCC[C@H]1C[C@@H]1CN1/C(=N/C2=O)Nc2ccc(N3CCC(N4CCN(c5cc(F)c([C@H]6CCC(=O)NC6=O)c(F)c5)CC4=O)CC3)cc21 [Example 458, (R)-3-(4-(4-(1-((7'S,7^2R,E)-1^1,2^6-dimethyl-3-oxo-5^2,5^3-dihydro-1^1H,5^1H-10-oxa-4-aza-5(2,1)-benzo[d]imidazola-2(2,4)-pyridina-1(4,5)-pyrazola-7(1,2)-cyclopropanacyclodecaphane-5^6-yl)piperidin-4-yl)-3-oxopiperazin-1-yl)-2,6-difluorophenyl)piperidine-2,6-dione]	985	809	92.7	92.47

Continued, in another order:

DC50 (Del19/T790M/C797S EGFR) [pM]	DC50 (L858R/T790M/C797S EGFR) [pM]	Dmax (L858R/T790M/C797S EGFR) [%]	SMILES	Dmax (%) (Del19/T790M/C797S EGFR)
647	678	88.7	Cc1cc2cc(n1)-c1cnn(C)c1OCCC[C@@H](C)CN1/C(=N/C2=O)Nc2ccc(N3CCC(N4CCN(c5cc(F)c([C@H]6CCC(=O)NC6=O)c(F)c5)CC4=O)CC3)cc21 [Example 450, (R)-3-(2,6-difluoro-4-(3-oxo-4-(1-((R,E)-1^1,2^6,7-trimethyl-3-oxo-5^2,5^3-dihydro-1^1H,5^1H-11-oxa-4-aza-5(2,1)-benzo[d]imidazola-2(2,4)-pyridina-1(4,5)-pyrazolacycloundecaphane-5^6-yl)piperidin-4-yl)piperazin-1-yl)phenyl)piperidine-2,6-dione]	83.01
1290	980	78.5	Cc1cc2cc(n1)-c1cnn(C)c1OCCC[C@@H](C)CN1/C(=N/C2=O)Nc2ccc(N3CCN(C4CCN(c5cc(F)c([C@H]6CCC(=O)NC6=O)c(F)c5)CC4)[C@@H](CC#N)C3)cc21 [Example 452, 2-((S)-1-(1-(4-((R)-2,6-dioxopiperidin-3-yl)-3,5-difluorophenyl)piperidin-4-yl)-4-((R,E)-1^1,2^6,7-trimethyl-3-oxo-5^2,5^3-dihydro-1^1H,5^1H-11-oxa-4-aza-5(2,1)-benzo[d]imidazola-2(2,4)-pyridina-1(4,5)-pyrazolacycloundecaphane-5^6-yl)piperazin-2-yl)acetonitrile]	75.73
765	1080	86	Cc1cc2cc(n1)-c1cnn(C)c1OCCC[C@@H](C)CN1/C(=N/C2=O)Nc2ccc(N3CC(NC4CCN(c5cc(F)c([C@H]6CCC(=O)NC6=O)c(F)c5)CC4)C3)cc21 [Example 454, (R)-3-(2,6-difluoro-4-(4-((1-((R,E)-1^1,2^6,7-trimethyl-3-oxo-5^2,5^3-dihydro-1^1H,5^1H-11-oxa-4-aza-5(2,1)-benzo[d]imidazola-2(2,4)-pyridina-1(4,5)-pyrazolacycloundecaphane-5-yl)azetidin-3-yl)amino)piperidin-1-yl)phenyl)piperidine-2,6-dione]	68.28
542	676	93.2	Cc1cc2cc(n1)-c1cnn(C)c1OCCC[C@@H](C)CN1/C(=N/C2=O)Nc2ccc(N3CCN(C4CCN(c5ccc(C6CCC(=O)NC6=O)nc5C)CC4)[C@@H](CC#N)C3)cc21 (stereo partly drawn) [Example 456, 2-((2S)-1-(1-(6-(2,6-dioxopiperidin-3-yl)-2-methylpyridin-3-yl)piperidin-4-yl)-4-((R,E)-1^1,2^6,7-trimethyl-3-oxo-5^2,5^3-dihydro-1^1H,5^1H-11-oxa-4-aza-5(2,1)-benzo[d]imidazola-2(2,4)-pyridina-1(4,5)-pyrazolacycloundecaphane-5^6-yl)piperazin-2-yl)acetonitrile]	84.5
